Results on 18 molecules are retold here after patent US8895578B2, “Carboxamide, sulfonamide and amine compounds and methods for using the same” (Rigel Pharmaceuticals, Inc., priority 2007, dated 2014).

Where only a bound is given, the exact number is not on record here.

The test concerns the target AMPK. Kind of test: AMPK activation, enzyme-linked immunosorbent assay. The format is biochemical. The protocol:
Compounds 1-54 were assayed for their ability to activate AMPK using an enzyme-linked immunosorbent assay.
Compounds 55-62 of Table 1 were assayed for their ability to activate AMPK using an enzyme-linked immunosorbent assay.
Compounds 63-66 of Table 1 were assayed for their ability to activate AMPK using an enzyme-linked immunosorbent assay.
Compounds 67-71 of Table 1 were assayed for their ability to activate AMPK using an enzyme-linked immunosorbent assay.
Compound 72 of Table 1 was assayed for its ability to activate AMPK using an enzyme-linked immunosorbent assay.

What is called EC50 is the concentration that produces a half-maximal response. As for `Cn1cnc(CN2CCC(NC(=O)c3ccc4[nH]c5c(c4c3)CN(Cc3ccc(C(F)(F)F)cc3)CC5)CC2)c1` [Compound 53, N-(1-((1-methyl-1H-imidazol-4-yl)methyl)piperidin-4-yl)-2-(4-(trifluoromethyl)benzyl)-2,3,4,5-tetrahydro-1H-pyrido[4,3-b]indole-8-carboxamide], the EC50 (Table 2, ELISA) fell in the range of 10000 to 50000 nM.

`O=C(NC1CCN(Cc2cocn2)CC1)c1ccc2[nH]c3c(c2c1)CN(Cc1ccc(C(F)(F)F)cc1)CC3` [Compound 54, N-(1-(oxazol-4-ylmethyl)piperidin-4-yl)-2-(4-(trifluoromethyl)benzyl)-2,3,4,5-tetrahydro-1H-pyrido[4,3-b]indole-8-carboxamide]: the EC50 (Table 2, ELISA) is < 500 nM.

Turning to `O=C(NC1CCN(Cc2ccccc2)CC1)c1ccc(CN2CCN(Cc3ccccc3)CC2)cc1` [Compound 55, 4-((4-benzylpiperazin-1-yl)methyl)-N-(1-benzyl-piperidin-4-yl)benzamide], the EC50 (Table 3, ELISA) is < 100 nM.

`O=C(NC1CCN(Cc2ccccc2)CC1)c1ccc(CN2CCN(CC3CCCCC3)CC2)cc1` [Compound 56, N-(1-benzylpiperidin-4-yl)-4-((4-(cyclohexyl-methyl)piperazin-1-yl)methyl)benzamide] displayed an EC50 (Table 3, ELISA) of 1000 to 10000 nM.

For the molecule `O=C(NC1CCN(Cc2ccccc2)CC1)c1ccc(CN2CCN(c3ccc(C(F)(F)F)cn3)CC2)cc1` [Compound 57, N-(1-benzylpiperidin-4-yl)-4-((4-(5-(trifluoro-methyl)pyridin-2-yl)piperazin-1-yl)methyl) benzamide], the EC50 (Table 3, ELISA) was < 100 nM.

With `O=C(NC1CCN(Cc2ccccc2)CC1)c1ccc(CN2CCN(c3ccccn3)CC2)cc1` [Compound 58, N-(1-benzylpiperidin-4-yl)-4-((4-(pyridin-2-yl)piperazin-1-yl)methyl) benzamide], the EC50 (Table 3, ELISA) was 1000 to 10000 nM.

In turn, `O=C(NC1CCN(Cc2ccncc2)CC1)c1ccc(CN2CCN(Cc3ccccc3)CC2)cc1` [Compound 59, 4-((4-benzylpiperazin-1-yl)methyl)-N-(1-(pyridin-4-ylmethyl)piperidin-4-yl)benzamide] returned an EC50 (Table 3, ELISA) of 100 to 500 nM.

`O=C(NC1CCN(Cc2cccnc2)CC1)c1ccc(CN2CCN(Cc3ccccc3)CC2)cc1` [Compound 60, 4-((4-benzylpiperazin-1-yl)methyl)-N-(1-(pyridin-3-ylmethyl)piperidin-4-yl) benzamide] came in with an EC50 (Table 3, ELISA) of 100 to 500 nM.

With `N#Cc1ccc(CN2CCC(NC(=O)c3ccc(CN4CCN(Cc5ccccc5)CC4)cc3)CC2)cc1` [Compound 61, 4-((4-benzylpiperazin-1-yl)methyl)-N-(1-(4-cyanobenzyl)piperidin-4-yl)benzamide], the EC50 (Table 3, ELISA) is < 100 nM.

`O=C(NC1CCN(Cc2ccc(C(F)(F)F)cc2)CC1)c1ccc(CN2CCN(Cc3ccccc3)CC2)cc1` [Compound 62, 4-((4-benzylpiperazin-1-yl)methyl)-N-(1-(4-trifluoromethylbenzyl)piperidin-4-yl) benzamide]: for the setting “Table 3, ELISA”, the EC50 was < 100 nM.

Regarding `O=C(NC1CCN(Cc2ccccc2)CC1)c1ccc2cc(OC3CCN(Cc4ccc(C(F)(F)F)cc4)CC3)ccc2c1` [Compound 63, N-(1-benzylpiperidin-4-yl)-6-(1-(4-(trifluoro-methyl)benzyl)piperidin-4-yloxy)-2-naphthamide], the EC50 (Table 4, ELISA) was < 500 nM.

As for `N#Cc1ccc(CN2CCC(Oc3ccc4cc(C(=O)NC5CCN(Cc6ccccc6)CC5)ccc4c3)CC2)cc1` [Compound 64, N-(1-benzylpiperidin-4-yl)-6-(1-(4-cyano-benzyl)piperidin-4-yloxy)-2-naphthamide], the EC50 (Table 4, ELISA) is < 500 nM.

The molecule `O=C(NC1CCN(Cc2ccccc2)CC1)c1ccc2cc(OC3CCN(c4ccc(C(F)(F)F)cc4)CC3)ccc2c1` [Compound 65, N-(1-benzylpiperidin-4-yl)-6-(1-(4-(trifluoro-methyl)phenyl)piperidin-4-yloxy)-2-naphthamide] showed an EC50 (Table 4, ELISA) of 1000 to 5000 nM.

On to `CC(C)(C)OC(=O)N1CCC(NC(=O)c2ccc3ccc(OC4CCN(c5ccc(C(F)(F)F)cc5)CC4)cc3c2)CC1` [Compound 66, tert-butyl 4-(7-(1-(4-(trifluoromethyl)phenyl)piperidin-4-yloxy)-2-naphthamido)piperidine-1-carboxylate], for which the 50% effective concentration (EC50) (Table 4, ELISA) was 1000 to 5000 nM.

For the molecule `CC(C)(C)OC(=O)N1CCC(NC(=O)c2cnc3ccc(OC4CCN(c5ccc(C(F)(F)F)cc5)CC4)cc3c2)CC1` [Compound 67, tert-butyl 4-(6-(1-(4-(trifluoromethyl)phenyl)piperidin-4-yloxy)quinoline-3-carboxamido)piperidine-1-carboxylate], the EC50 (Table 5, ELISA) lay in the range of 100 to 500 nM.

Turning to `O=C(NC1CCNCC1)c1cnc2ccc(OC3CCN(c4ccc(C(F)(F)F)cc4)CC3)cc2c1` [Compound 68, N-(piperidin-4-yl)-6-(1-(4-(trifluoromethyl)phenyl)piperidin-4-yloxy) quinoline-3-carboxamide], the EC50 (Table 5, ELISA) is > 5000 nM.

With `N#Cc1ccc(CN2CCC(NC(=O)c3cnc4ccc(OC5CCN(c6ccc(C(F)(F)F)cc6)CC5)cc4c3)CC2)cc1` [Compound 69, N-(1-(4-cyanobenzyl)piperidin-4-yl)-6-(1-(4-(trifluoromethyl)phenyl)piperidin-4-yloxy) quinoline-3-carboxamide], the EC50 (Table 5, ELISA) was < 100 nM.

`O=C(NC1CCN(Cc2ccc(C(F)(F)F)cc2)CC1)c1cnc2ccc(OC3CCN(c4ccc(C(F)(F)F)cc4)CC3)cc2c1` [Compound 70, N-(1-(4-(trifluoromethyl)benzyl)piperidin-4-yl)-6-(1-(4-(trifluoromethyl)phenyl)piperidin-4-yloxy) quinoline-3-carboxamide]: the concentration for a half-maximal effect (EC50) (Table 5, ELISA) is < 100 nM.
